Key:
[1] = crystallization of boric acid in aqueous phase, temperature cycle N; type: physicochemical
Method: (§1) The tests described in the examples hereafter are conducted by means of a device of the type of the one illustrated in the single FIGURE.
(§2) The device consists of a beaker 10 with a double glass wall 11, inside which flows a heat transfer fluid 12. The beaker 10 also contains a U-shaped metal tube 13, which contains a circulating heat transfer fluid 14.
(§3) The temperatures of the heat transfer fluids 12 and 14 are each adjusted independently of the other, by a heat generator (not shown in the single FIGURE).
(§4) However, the temperature of the heat transfer fluid 14 is adjusted so that it is always strictly less than that of the heat transfer fluid 12, typically lower by 1° C. to 10° C. If it is assumed that heat conduction of the material making up the metal tube 13 occurs without any notable loss, the walls of the tube 13 […] thus form a so-called ? cold ? element.
(§5) Two temperature cycles may be applied to an aqueous phase 15 containing boric acid, which is poured into the beaker 10.
A temperature cycle ? […]
(§6) Regardless of the relevant temperature cycle, a crystallization rate is defined at the end of one of these temperature cycles, which corresponds to the ratio of the mass of boric acid crystals measured at the end of this cycle, to the total initially introduced mass of boric acid.

[2] = crystallization of boric acid in aqueous phase, temperature cycle P (with a penalty); type: physicochemical
Method: as §1, §2, §3, §4, §5
A temperature cycle ? P ? […]
as §6

reduction in the crystallization of boric acid in an aqueous phase in presence of the compound [1]	reduction of the crystallization of boric acid in an aqueous phase in presence of the compound [2]	SMILES
appreciable reduction	–	NC(CO)(CO)CO [Tris, 2-amino-2-(hydroxymethyl)-propane-1,3-diol]
appreciable reduction	large reduction	OCC(CO)(CO)CO [pentaerythritol]

— US20150158810A1, “PREVENTION OR SUPPRESSION OF CYRSTALLISATION OF BORIC ACID PRESENT IN AN AQUEOUS PHASE” (COMMISSARIAT À L'ÉNERGIE ATOMIQUE ET AUX ÉNERGIES …, priority 2012, published 2015)
